Test results taken from PubChem BioAssay AID248 (DTP/NCI, 2004).
Values joined by “and” are separate entries in the source; they are usually repeats but may differ in a detail not shown here. Identical values can stand only once. Inconclusive results and toxic doses are left out. No stated cut-off is given here; in the data, active means T/C of 150% or more; inactive means T/C below 125%.

System: L1210 leukemia ip in BDF1 mice, survival T/C
Assay: NCI In Vivo Anticancer Drug Screen. Data for tumor model L1210 Leukemia (intraperitoneal) in B6D2F1 (BDF1) mice
Conditions: endpoint: mean survival time, higher = longer survival
In short: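 Ratio derived from survival: compound-dosed mice over vehicle-dosed mice, all bearing a transplantable tumor.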

[1] = dose: 100.0 mg/kg/injection, schedule: Q01DX001 (ip), vehicle: saline
[2] = dose: 200.0 mg/kg/injection, schedule: Q01DX001 (ip), vehicle: saline
[3] = dose: 400.0 mg/kg/injection, schedule: Q01DX001 (ip), vehicle: saline
[4] = dose: 100.0 mg/kg/injection, schedule: Q04DX003 (ip), vehicle: saline with Tween-80
[5] = dose: 200.0 mg/kg/injection, schedule: Q04DX003 (ip), vehicle: saline with Tween-80
[6] = dose: 400.0 mg/kg/injection, schedule: Q04DX003 (ip), vehicle: saline with Tween-80
[7] = dose: 100.0 mg/kg/injection, schedule: Q04DX003 (ip), vehicle: Klucel (hydroxypropylcellulose) (HPC)
[8] = dose: 200.0 mg/kg/injection, schedule: Q04DX003 (ip), vehicle: Klucel (hydroxypropylcellulose) (HPC)
[9] = dose: 400.0 mg/kg/injection, schedule: Q04DX003 (ip), vehicle: Klucel (hydroxypropylcellulose) (HPC)
[10] = dose: 50.0 mg/kg/injection, schedule: Q01DX001 (ip), vehicle: saline
[11] = dose: 100.0 mg/kg/injection, schedule: Q04DX002 (ip), vehicle: saline
[12] = dose: 200.0 mg/kg/injection, schedule: Q04DX002 (ip), vehicle: saline
[13] = dose: 400.0 mg/kg/injection, schedule: Q04DX002 (ip), vehicle: saline
[14] = dose: 100.0 mg/kg/injection, schedule: Q01DX009 (ip), vehicle: Klucel (hydroxypropylcellulose) (HPC)
[15] = dose: 200.0 mg/kg/injection, schedule: Q01DX009 (ip), vehicle: Klucel (hydroxypropylcellulose) (HPC)
[16] = dose: 400.0 mg/kg/injection, schedule: Q01DX009 (ip), vehicle: Klucel (hydroxypropylcellulose) (HPC)
[17] = dose: 100.0 mg/kg/injection, schedule: Q04DX003 (ip), vehicle: saline
[18] = dose: 200.0 mg/kg/injection, schedule: Q04DX003 (ip), vehicle: saline
[19] = dose: 400.0 mg/kg/injection, schedule: Q04DX003 (ip), vehicle: saline

Measured: T/C

Cc1ccc(S(=O)(=O)Nc2ccccc2)cc1
inactive: dose: 100.0 mg/kg/injection, schedule: Q04DX002 (ip), vehicle: Klucel (hydroxypropylcellulose) (HPC) 100 % of control | dose: 200.0 mg/kg/injection, schedule: Q04DX002 (ip), vehicle: Klucel (hydroxypropylcellulose) (HPC) 94 % of control | dose: 400.0 mg/kg/injection, schedule: Q04DX002 (ip), vehicle: Klucel (hydroxypropylcellulose) (HPC) 91 % of control

Cc1ccc(N2CCN(C(C)(C)C#N)CC2)cc1
inactive: [1] 102 % of control | [2] 98 % of control

COC1OC(CO)C(N(C)C(C)=O)C1O (stereo not given)
inactive: [1] 94 % of control | [2] 103 % of control | [3] 97 % of control

Cc1ccc(SCCn2cnc3c(ncn3Cc3ccccc3)c2=S)cc1
inactive: [4] 96 % of control | [5] 109 % of control | [6] 101 % of control

O=C(NCCCl)Nc1ccc2c(c1)CCC2
inactive: [7] 94 % of control and 107 % of control | [8] 103 % of control and 90 % of control | [9] 92 % of control

[O]=[Sb]([OH])([c]1ccc(Cl)cc1)[c]1ccc(Cl)cc1
inactive: dose: 75.0 mg/kg/injection, schedule: Q01DX001 (ip), vehicle: saline 116 % of control

CCOCCO
inactive: dose: 5.0 mg/kg/injection, schedule: Q01DX009 (ip), vehicle: saline 97 % of control | dose: 10.0 mg/kg/injection, schedule: Q01DX009 (ip), vehicle: saline 90 % of control | dose: 20.0 mg/kg/injection, schedule: Q01DX009 (ip), vehicle: saline 98 % of control

OC(CC(O)(C(F)(F)F)C(F)(F)F)CC(O)(C(F)(F)F)C(F)(F)F
inactive: dose: 25.0 mg/kg/injection, schedule: Q01DX009 (ip), vehicle: saline with Tween-80 101 % of control | [4] 95 % of control

N#Cc1ccc(O)c(-c2ccccn2)c1
inactive: [7] 94 % of control | [8] 93 % of control | [9] 94 % of control

C=CCC1CC2CC(C1C)C2(C)C (stereo not given)
inactive: dose: 50.0 mg/kg/injection, schedule: Q01DX009 (ip), vehicle: saline with Tween-80 93 % of control | dose: 100.0 mg/kg/injection, schedule: Q01DX009 (ip), vehicle: saline with Tween-80 101 % of control | dose: 200.0 mg/kg/injection, schedule: Q01DX009 (ip), vehicle: saline with Tween-80 93 % of control

Nc1ccc(/C=C/c2ccc(N)cc2S(=O)(=O)O)c(S(=O)(=O)O)c1
inactive: [10] 97 % of control | [1] 94 % of control | [2] 94 % of control | [3] 97 % of control

CCCCCCCCOc1ccc(N(C)C(N)=S)cc1
inactive: [7] 97 % of control | [8] 101 % of control | [9] 106 % of control

COc1ccc(CCN)cc1OC
inactive: [11] 106 % of control | [12] 100 % of control | [13] 100 % of control

COC(OC)C1OC(C)(C)OC1C(OS(=O)(=O)c1ccc(C)cc1)C1COC(C)(C)O1 (stereo not given)
inactive: [4] 97 % of control | [5] 91 % of control | [6] 89 % of control

COC(=O)c1nnc(C(=O)OC)nn1
inactive: [11] 96 % of control | [12] 115 % of control | [13] 96 % of control

CCCCNC(=O)Nc1c(C)cccc1Cl
inactive: [14] 101 % of control | [7] 101 % of control | [15] 90 % of control | [8] 97 % of control | [16] 87 % of control | [9] 88 % of control

CC(=O)N(CCC#N)CCC#N
inactive: [17] 95 % of control | [18] 96 % of control | [19] 93 % of control

O=C(OC12CCN(CC1)CC2)c1ccccc1
inactive: dose: 9.5 mg/kg/injection, schedule: Q01DX001 (ip), vehicle: saline 95 % of control | dose: 19.0 mg/kg/injection, schedule: Q01DX001 (ip), vehicle: saline 95 % of control

CC1CCC(C2=CSC3CCCCC3N2)C(C)C1 (stereo not given)
inactive: dose: 100.0 mg/kg/injection, schedule: Q04DX002 (ip), vehicle: other 111 % of control | dose: 200.0 mg/kg/injection, schedule: Q04DX002 (ip), vehicle: other 101 % of control | dose: 400.0 mg/kg/injection, schedule: Q04DX002 (ip), vehicle: other 97 % of control

CC(=O)c1ccc(C(O)C(CO)NC(=O)C(Cl)Cl)cc1 (stereo not given)
inactive: [7] 100 % of control | [8] 103 % of control | [9] 103 % of control

NNC(=O)COc1ccccc1
inactive: [1] 106 % of control

CNNC(=O)C(O)C(C)(C)CO (stereo not given)
inactive: [1] 100 % of control | [2] 100 % of control | [3] 102 % of control

CC(=O)SC1CC(=O)OC1=O (stereo not given)
inactive: dose: 50.0 mg/kg/injection, schedule: Q01DX009 (ip), vehicle: saline 96 % of control | [1] 96 % of control | dose: 100.0 mg/kg/injection, schedule: Q01DX009 (ip), vehicle: saline 102 % of control | [2] 104 % of control | [3] 98 % of control

NC(CSc1ccc(Cl)cc1)C(=O)O (stereo not given)
inactive: dose: 100.0 mg/kg/injection, schedule: Q04DX003 (sc), vehicle: steriod suspending solution 86 % of control | dose: 200.0 mg/kg/injection, schedule: Q04DX003 (sc), vehicle: steriod suspending solution 86 % of control | dose: 400.0 mg/kg/injection, schedule: Q04DX003 (sc), vehicle: steriod suspending solution 92 % of control

Cc1cccc(Cl)c1NC(=O)Nc1cc([N+](=O)[O-])ccc1O
inactive: dose: 25.0 mg/kg/injection, schedule: Q01DX009 (ip), vehicle: Klucel (hydroxypropylcellulose) (HPC) 91 % of control | dose: 50.0 mg/kg/injection, schedule: Q01DX009 (ip), vehicle: Klucel (hydroxypropylcellulose) (HPC) 91 % of control | [14] 96 % of control and 87 % of control | [15] 91 % of control | [16] 88 % of control

c1ccc2nc3c(cc2c1)[nH]c1ccccc13
inactive: dose: 100.0 mg/kg/injection, schedule: Q04DX002 (ip), vehicle: gum acacia 92 % of control | dose: 200.0 mg/kg/injection, schedule: Q04DX002 (ip), vehicle: gum acacia 106 % of control | dose: 400.0 mg/kg/injection, schedule: Q04DX002 (ip), vehicle: gum acacia 103 % of control

CCOC(=O)NC(=O)Nc1ncn[nH]1
inactive: [17] 97 % of control | [18] 94 % of control | [19] 94 % of control

COc1ccc2c(c1)OC(C)(C)C(c1ccccc1)C2c1ccc(OCCN2CCCC2)cc1 (stereo not given)
inactive: [4] 119 % of control | [5] 94 % of control | [6] 95 % of control

CC1([N+](=O)[O-])COP(=O)(Nc2ccc(Br)cc2)OC1 (stereo not given)
inactive: [10] 93 % of control | [1] 98 % of control | [2] 104 % of control | [3] 122 % of control

C1=C(c2ccccc2)CC2CCCC1N2Cc1ccccc1 (stereo not given)
inactive: dose: 12.5 mg/kg/injection, schedule: Q04DX003 (ip), vehicle: Klucel (hydroxypropylcellulose) (HPC) 102 % of control | dose: 25.0 mg/kg/injection, schedule: Q04DX003 (ip), vehicle: Klucel (hydroxypropylcellulose) (HPC) 102 % of control | dose: 50.0 mg/kg/injection, schedule: Q04DX003 (ip), vehicle: Klucel (hydroxypropylcellulose) (HPC) 94 % of control

O=C(c1ccc([N+](=O)[O-])cc1)c1ccn[nH]1
inactive: dose: 100.0 mg/kg/injection, schedule: Q01DX001 (ip), vehicle: Klucel (hydroxypropylcellulose) (HPC) 103 % of control | dose: 200.0 mg/kg/injection, schedule: Q01DX001 (ip), vehicle: Klucel (hydroxypropylcellulose) (HPC) 99 % of control | dose: 400.0 mg/kg/injection, schedule: Q01DX001 (ip), vehicle: Klucel (hydroxypropylcellulose) (HPC) 94 % of control
